Experimental data as given in publication PMC12731105, “Design and Synthesis of New Quinoxaline Analogs to Regenerate Sensory Auditory Hair Cells” (Cells, 2025).

Key:
[1] = tested on: HEI-OC1 cells; experiment: TACS MTT cell proliferation / metabolic activity assay in HEI-OC1; format: cell-based, mouse; conditions: for Proliferative effect and metabolic activity at low concentrations: 0.1 μM to 5 μM, 24 h incubation, also stated for Neuro-2A and HT-1080; for Proliferative effect vs Qx-70 and untreated cells: HEI-OC1, TACS MTT; for Metabolic and proliferative activities at high concentrations: concentrations higher than 5 μM, across all three lines
Description: (§1) HEI-OC1 cells derived from the mouse OC (kindly provided by Dr. F. Kalinec) were cultured under permissive conditions (33 °C, 10% CO2) as described in [22]. Additionally, we assessed the activity of Qx-derived compounds in the mouse neuroblastoma cell line, Neuro-2A, and the human fibrosarcoma HT-1080 (ATCC, Manassas, VA, USA) following the standard cell culture guidelines provided by the vendor.
(§2) In vitro cell proliferation effects of all ten initial compounds (Figure 1A,B) were tested on HEI-OC1, Neuro-2A and HT-1080 cells by TACS® 3-(4,5-dimethylthiazol-2-yl)-2,5-diphenyltetrazolium bromide (MTT) Cell Proliferation Assay (R&D Systems, Minneapolis, MN, USA, 4890-025-K), following the manufacturer’s protocol. Absorbance was measured with SpectraMax® M Series Multi-Mode Microplate Reader with Soft Max Pro 7.2 GxP Software (Molecular Devices, Sunnyvale, CA, USA), and the average OD in control cells was taken as 100% of viability. Upon selecting the most viable compounds (Qx-294 and Qx-301), we proceeded with in vivo experiments. For zebrafish treatment, animals were incubated for varied times with different concentrations (50, 100, 150, 200, 250, and 300 μg/mL) of Qx-294 or Qx-301 diluted in swimming (E3) media or administered via IP injections. Mice treatment followed the same procedures as described in [18]. Following treatment, animals or tissue samples were incubated in Click-it EdU or Click-it Plus TUNEL kits (Thermo Scientific, Waltham, MA, USA), following the manufacturer’s instructions to label proliferating and apoptotic cells, respectively.

[2] = tested on: HT-1080; experiment: TACS MTT cell proliferation / metabolic activity assay in HT-1080; format: cell-based, human; conditions: for Increase in MTT absorbance compared to DMSO controls and untreated cells: HT-1080, low-dose exposure (≤5 μM); for MTT absorbance change at higher concentrations: HT-1080, ≥5 μM
Description: as §1, §2

[3] = tested on: Neuro-2A; experiment: TACS MTT cell proliferation / metabolic activity assay in Neuro-2A; format: cell-based, mouse; conditions: for Increase in MTT absorbance compared to DMSO controls and untreated cells: low-dose exposure (≤5 μM); for MTT absorbance change at higher concentrations: ≥5 μM
Description: as §1, §2

[4] = tested on: zebrafish neuromast cells; experiment: TUNEL assay in zebrafish neuromasts; format: in vivo, zebrafish (Danio rerio); conditions: 400 μM, 6 h
Description: Absorbance was measured with SpectraMax® M Series Multi-Mode Microplate Reader with Soft Max Pro 7.2 GxP Software (Molecular Devices, Sunnyvale, CA, USA), and the average OD in control cells was taken as 100% of viability. […] Mice treatment followed the same procedures as described in [18]. Following treatment, animals or tissue samples were incubated in Click-it EdU or Click-it Plus TUNEL kits (Thermo Scientific, Waltham, MA, USA), following the manufacturer’s instructions to label proliferating and apoptotic cells, respectively.

Structure (SMILES) | Proliferative effect and metabolic activity at low concentrations [1] | Proliferative effect vs Qx-70 and untreated cells [1] | Metabolic and proliferative activities at high concentrations [1] | Increase in MTT absorbance compared to DMSO controls and untreated cells [2] | MTT absorbance change at higher concentrations [2] | Increase in MTT absorbance compared to DMSO controls and untreated cells [3] | MTT absorbance change at higher concentrations [3] | Cell death (TUNEL) in neuromasts, positive control [4]
CC(=O)N1CCN(c2cnc3ccccc3n2)CC1 [Qx-296, 2-(4-acetylpiperazine)-quinoxaline] | high proliferative effect and increased metabolic activity | significant and reproducible proliferative effects greater than those of Qx-70 and the untreated cells | declined | ≤ 9% | moderate reductions | ≤ 9% | moderate reductions | –
N.N.[Cl][Pt][Cl] [cisplatin, reference compound] | – | – | – | – | – | – | – | extensive cell death
c1ccc2nc(N3CCSCC3)cnc2c1 [Qx-295, 2-(thiomorpholine)-quinoxaline] | high proliferative effect and increased metabolic activity | significant and reproducible proliferative effects greater than those of Qx-70 and the untreated cells | declined | ≤ 9% | moderate reductions | ≤ 9% | moderate reductions | –
CCNc1cnc2ccccc2n1 [Qx-292, 2-(ethylamine)-quinoxaline] | high proliferative effect and increased metabolic activity | significant and reproducible proliferative effects greater than those of Qx-70 and the untreated cells | declined | ≤ 9% | moderate reductions | ≤ 9% | moderate reductions | –
